Laboratory results: article PMC12292521, “Discovery of a Potent Antimicrobial Peptide Through Rational Design: A New Frontier in Pathogen Control” (Biomolecules, 2025)
Converted amounts (≈) assume the structure as drawn. Like-named read-outs stand apart in the source and are kept apart here. Peptide text beside a SMILES is read from it.

Assays:
Assay type in all cases: cell-based
[1] = system: Enterococcus faecium (VREfm); conditions: broth microdilution, 96-well, RKW 1-75 μM
Procedure: (§1) Therefore, the minimum inhibitory concentration (MIC) and MBC were evaluated. […] Subsequently, the antibiofilm activity of the peptide was tested according to Festa et al.. Specifically, two different concentrations of peptide were used, corresponding to ½ and ¼ of the estimated MIC value, which guarantee the optimal bacterial growth conditions necessary to allow biofilm production. Biofilm production (%) was calculated based on Optical Density (measured at 630 nm) outputs, compared to the control group.

[2] = system: Acinetobacter baumannii (CRAB)
Procedure: as §1

[3] = system: Staphylococcus aureus (MRSA); conditions: for MIC: broth microdilution, 96-well, RKW 1-75 μM
Procedure: as §1

[4] = system: Staphylococcus aureus ATCC 6538; test: Quantitative suspension test, bactericidal activity, BS EN 1276:2019; set-up: key to Bactericidal activity verdict: Active: For bacteria: ACTIVE if log R ≥ 5 according to BS EN 1276:2019; Not active: For bacteria: ACTIVE if log R ≥ 5 according to BS EN 1276:2019; conditions: 60 min, 37 °C, BSA 0.3 g/L
Source text: (§2) The method is based on the suspension test according to BS EN 1276:2019, which specifies a quantitative suspension analysis for the evaluation of the bactericidal activity of chemical disinfectants and antiseptics used in food, industrial, domestic, and institutional areas against a panel of microorganisms under conditions that more closely simulate practical use. Briefly, S. aureus ATCC 6538, P. aeruginosa ATCC 15442, and Staphylococcus epidermidis ATCC 12228 were used as test organisms at a bacterial concentration of 1.0 × 10^8 colony-forming units (CFU) per mL (CFU/mL). In the test, BSA (Bovine Serum Albumin) (0.3 g/L) was used as an interfering substance to mimic clean conditions. […] The reaction mixture was incubated at 37 °C for 60 min before transferring each sample to a tube containing a neutralizer solution consisting of 30 g/L polysorbate 80, 1 g/L sodium thiosulfate, 3 g/L lecithin, 1 g/L tryptone, 8.5 g/L NaCl, 100 mL/L phosphate buffer and water. The negative control (untreated cells) was prepared using PBS instead of biocides. The solutions were then plated onto Tryptone Soy Agar (TSA) and incubated at 37 °C for 48 h to determine the logarithmic CFU/mL reduction, according to the following Equation:(2) log R = log (N0) − log (Na) where R refers to the reduction in viability, N refers to the number of CFU/mL in the test mixture at the beginning of the contact time, and Na refers to the number of CFU/mL in the test mixture at the end of the contact time. […] The test method and the minimum requirements for fungicidal activity of chemical disinfectant and antiseptic products were performed according to BS EN 1650:2019. The fungicidal activity was studied using the vegetative cells of Candida albicans ATCC 10231 and the spores of Aspergillus brasiliensis ATCC 16404 as test organisms. […] The mixture was maintained at 37 °C for a contact time of 60 min. At the end of this contact time, an aliquot was taken, and the fungicidal activity was immediately neutralized with a solution consisting of 30 g/L polysorbate 80, 1 g/L sodium thiosulfate, 3 g/L lecithin, 1 g/L tryptone, 8.5 g/L NaCl, 100 mL/L phosphate buffer and water. The samples were then plated onto malt extract agar (MEA) and incubated at 30 °C for 48 h to determine the numbers of surviving fungi as the logarithmic CFU/mL reduction, calculated according to Equation (2).

[5] = system: Staphylococcus epidermidis ATCC 12228; test: as above; set-up: key to Bactericidal activity verdict: Active: For bacteria: ACTIVE if log R ≥ 5 according to BS EN 1276:2019; Not active: For bacteria: ACTIVE if log R ≥ 5 according to BS EN 1276:2019; conditions: 60 min, 37 °C, BSA 0.3 g/L
Source text: as §2

[6] = system: Pseudomonas aeruginosa ATCC 15442; test: as above; set-up: key to Bactericidal activity verdict: Active: For bacteria: ACTIVE if log R ≥ 5 according to BS EN 1276:2019; Not active: For bacteria: ACTIVE if log R ≥ 5 according to BS EN 1276:2019; conditions: 60 min, 37 °C, BSA 0.3 g/L
Source text: as §2

[7] = inoculum 5 × 10^3 CFU/mL (3 Log)
[8] = inoculum 5 × 10^5 CFU/mL (5 Log)

## CC[C@H](C)[C@H](NC(=O)[C@H](Cc1c[nH]c2ccccc12)NC(=O)[C@H](CCCCN)NC(=O)[C@@H](N)CCCNC(=N)N)C(=O)N[C@@H](CC(C)C)C(=O)N[C@@H](CCCCN)C(=O)N[C@@H](Cc1c[nH]c2ccccc12)C(=O)N[C@@H](CC(C)C)C(=O)N[C@@H](CCCNC(=N)N)C(=O)N[C@H](C(=O)N[C@@H](Cc1c[nH]c2ccccc12)C(=O)N[C@@H](CCCCN)C(=O)N[C@@H](CCCCN)C(N)=O)[C@@H](C)O [RKW] (H-RKWILKWLRTWKK-NH2; N-terminus assumed)
[1]; [7]
  MIC: 20 µM (≈ 36.8 µg/mL)
[1]; [8]
  MIC: 20 µM (≈ 36.8 µg/mL)
[2]
  MBC: 50 µM (≈ 92.1 µg/mL)
[3]
  MBC: 50 µM (≈ 92.1 µg/mL)
[3]; [7]
  MIC: 50 µM (≈ 92.1 µg/mL)
[3]; [8]
  MIC: 50 µM (≈ 92.1 µg/mL)
[4]; RKW 5 µM
  Bactericidal activity verdict: Na = 1.11 × 10^5 log Na = 5.10 log R = 2.25 Not active
  Na (CFU/mL at the end of the contact time): 1.11 × 10^5 CFU/mL
[4]; RKW 10 µM
  Bactericidal activity verdict: Na = 5.10 × 10^4 log Na = 4.71 log R = 2.59 Not active
  Na (CFU/mL at the end of the contact time): 5.10 × 10^4 CFU/mL
[4]; RKW 20 µM
  Bactericidal activity verdict: Na= 1.47 × 10^4 log Na = 4.20 log R = 3.13 Not active
  Na (CFU/mL at the end of the contact time): 1.47 × 10^4 CFU/mL
[4]; RKW 50 µM
  Na (CFU/mL at the end of the contact time): 1.47 × 10^4 CFU/mL
[4]; RKW 100 µM
  Na (CFU/mL at the end of the contact time): 1.47 × 10^4 CFU/mL
[5]; RKW 5 µM
  Bactericidal activity verdict: Na = 3.70 × 10^2 log Na = 2.57 log R = 4.71 Not active
  Na (CFU/mL at the end of the contact time): 3.70 × 10^2 CFU/mL
[5]; RKW 10 µM
  Bactericidal activity verdict: Na = 2.40 × 10^2 log Na = 2.38 log R = 4.90 Not active
  Na (CFU/mL at the end of the contact time): 2.40 × 10^2 CFU/mL
[5]; RKW 20 µM
  Bactericidal activity verdict: Na = 1.60 × 10^2 log Na = 2.20 log R = 5.08 Active
  Na (CFU/mL at the end of the contact time): 1.60 × 10^2 CFU/mL
[5]; RKW 50 µM
  Bactericidal activity verdict: Na = 1.60 × 10^2 log Na = 2.20 log R = 5.08 Active
  Na (CFU/mL at the end of the contact time): 1.60 × 10^2 CFU/mL
[5]; RKW 100 µM
  Bactericidal activity verdict: Na = 1.60 × 10^2 log Na = 2.20 log R = 5.08 Active
  Na (CFU/mL at the end of the contact time): 1.60 × 10^2 CFU/mL
[6]; RKW 5 µM
  Bactericidal activity verdict: Active
  Na (CFU/mL at the end of the contact time): < 1.40 × 10^2 CFU/mL
[6]; RKW 10 µM
  Bactericidal activity verdict: Active
  Na (CFU/mL at the end of the contact time): < 1.40 × 10^2 CFU/mL
[6]; RKW 20 µM
  Bactericidal activity verdict: Active
  Na (CFU/mL at the end of the contact time): < 1.40 × 10^2 CFU/mL
[6]; RKW 50 µM
  Bactericidal activity verdict: Active
  Na (CFU/mL at the end of the contact time): < 1.40 × 10^2 CFU/mL
[6]; RKW 100 µM
  Bactericidal activity verdict: Active
  Na (CFU/mL at the end of the contact time): < 1.40 × 10^2 CFU/mL
